Reference: publication PMC7560626, “Active site competition is the mechanism for the inhibition of lipoprotein-associated phospholipase A2 by detergent micelles or lipoproteins and for the efficacy reduction of darapladib” (Scientific Reports, 2020)
Where two headings read alike, the source gives them in different places. One block for each compound: values may come before it.

Tests used:
[1] = Distribution in bulk phase, detergent micelles and lipoproteins by SEC (TSKgel G3000SWXL); format: physicochemical
Procedure: Figure 8 Distribution of 14:0 NPS-PC and darapladib under different conditions. Assay methods are described in Experimental Procedures. (a) Distribution of 14:0 NPS-PC in TBS, pH 7.4, with and without detergents. Twenty µl of 14:0 NPS-PC at 10 µM were resolved by a TSKgel G3000SWXL column in TBS, pH 7.4, containing no detergent, 10 mM CHAPS or 60 µM Tween-20. Absorbance at 260 nm were monitored for 14:0 NPS-PC. Bulk phase is after fraction number 17 or after elution time 17 min. (b) Distribution of darapladib in TBS, pH 7.4, with and without detergents. Forty µl of darapladib in mobile phase buffer at 0.2 µM were resolved by a TSKgel G3000SWXL column in TBS, pH 7.4, containing no detergent, 10 mM CHAPS or 600 µM Tween-20. Relative darapladib concentration in each fraction was shown by inhibition of spiked Lp-PLA2. (c) Distribution of darapladib in TBS, pH 7.4, containing HDL or LDL. Forty µl of 1 mg/ml HDL or LDL with or without 0.2 µM darapladib were resolved by a TSKgel G3000SWXL column in TBS, pH 7.4. Relative darapladib concentration in each fraction was quantitated by inhibition of spiked Lp-PLA2. (d) Distribution of darapladib in human serum. Forty µl of neat human serum with or without 150 µM darapladib under the conditions as indicated were resolved by a TSKgel G3000SWXL column in TBS, pH 7.4. Relative darapladib concentration in each fraction was determined by inhibition of spiked Lp-PLA2.
Fractionation chromatography was carried out on an Akta10 or Akta100 by using a 10 mm × 300 mm Sperose-6 column at ambient temperature with the flow rate of 0.3 ml per minute. Fifty to two hundred µl of serum samples were injected per run depending on the Lp-PLA2 concentrations of the samples after the column was equilibrated with the running buffer (PBS, pH 7.2). Fraction collection was started at 21 min after sample injection and the collection volume was 0.6 ml/tube. Distribution of 14:0 NPS-PC and darapladib were carried out by separation of 20 – 40 µl of samples on a TSKgel G3000SWXL (7.8 mm × 30 cm, 5 µm) in TBS, pH 7.4, with and without detergents using a HPLC at flow rate of 0.8 ml/min. Fractions were collected at 1 min per tube starting at 6 min and ending at 21 min. Signal of 14:0 NPS-PC was detected by monitoring at 260 nm. Darapladib were assayed based on its inhibition of Lp-PLA2 activity. To one hundred µl of fraction, 10 µl of Lp-PLA2 at the concentration of approximately 0.5 µg/ml were added and the mixture was incubated at ambient temperature for 30 min with shaking. Reaction was started by adding 50 µl of mixture of CHAPS, SNS (sodium 1-nonane sulfonate) and 14:0 NPS-PC in buffer of 150 mM HEPES, pH 7.5, containing 12 mM EDTA. The final concentrations of CHAPS, SNS and 14:0 NPS-PC were 5 mM, 10 mM and 50 µM respectively. The hydrolysis reaction was monitored at 405 nm for 5 min. Fractions were also assayed for residual Lp-PLA2 activity by mixing in 100 µl fraction with 50 µl buffer of 150 mM HEPES, pH 7.5, containing 30 mM SNS, 30 mM CHAPS, 12 mM EDTA and 1.6 mM 14:0 NPS-PC.

Lp-PLA2 [2] = tested on: Lp-PLA2; parameters: method as in PMID 25173516, PMID 24678955; conditions: 160 mg daily for 12 weeks; cited from earlier work
[3] = in Fig. 1a; source not stated; cited from earlier work
Lp-PLA2 [4] = target: T1, Lp-PLA2 (Homo sapiens, UniProt Q13093); experiment: Kinetics of hydrolysis of 14:0 NPS-PC by recombinant Lp-PLA2; format: biochemical
T1 sequence (Q13093 22-441): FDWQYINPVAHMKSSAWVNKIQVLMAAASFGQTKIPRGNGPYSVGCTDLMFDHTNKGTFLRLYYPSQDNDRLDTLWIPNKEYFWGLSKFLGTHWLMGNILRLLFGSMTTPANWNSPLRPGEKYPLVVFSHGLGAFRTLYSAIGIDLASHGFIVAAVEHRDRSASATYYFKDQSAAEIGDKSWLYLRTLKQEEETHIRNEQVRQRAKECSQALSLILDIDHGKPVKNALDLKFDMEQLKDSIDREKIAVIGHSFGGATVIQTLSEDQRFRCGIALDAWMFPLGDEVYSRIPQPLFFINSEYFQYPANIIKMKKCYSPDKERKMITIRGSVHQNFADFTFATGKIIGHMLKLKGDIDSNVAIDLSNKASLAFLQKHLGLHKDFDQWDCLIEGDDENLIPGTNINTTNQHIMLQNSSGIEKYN
Procedure: (a) Fitting of kinetic model for hydrolysis of 14:0 NPS-PC in the absence and presence of 10 mM CHAPS. […] Details are in Experiment Procedures. (c) Determination of CMC for 14:0 NPS-PC and CHAPS by anisotropy of polarized fluorescence using fluorescein as probe. Details are in Experiment Procedures.
Lp-PLA2 activity was assayed under different conditions and different methods were used. […] Purified recombinant Lp-PLA2 in storage buffer was diluted into TBS or PBS, pH 7.4–7.6, at the concentration of 1 µg/ml and 20 µl of the solution were used for each reaction. […] Generally, hydrolysis of 14:0 NPS-PC was monitored at 405 nm for 5 min under ambient temperature for all kinetic assays. […] Lp-PLA2 kinetic assays were performed in the same assay buffer with 14:0 NPS-PC concentrations as indicated. Assays were carried out in 96-well plates using a SpectraMax m2e plate reader. Hydrolysis of 14:0 NPS-PC was monitored at 405 nm for 5 min under ambient temperature. Serum Lp-PLA2 activity and mass concentration were measured by using PLAC activity and mass test kits (diaDexus) following the manufacturer's instruction. PLAC mass measurements were performed by manual ELISA and PLAC activity measurements were carried out by the Beckman Coulter AU400 analyzer as described in a previous publication. Twenty or forty μl of the fractionated sample per tube were used, depending on the Lp-PLA2 concentration of the samples. Ten mM CHAPS-modified PLAC ELISA test kits were made by adding solid CHAPS to the assay buffer to the final concentration of 10 mM. The assays follow the same instructions as the unmodified PLAC mass test kits. Other Lp-PLA2 activity assays are as indicated in figures or other experimental sections.

[5] = CMC by polarized fluorescence anisotropy with fluorescein as probe; format: physicochemical; conditions: TBS, pH 7.4
Procedure: CMC of CHAPS and 14:0 NPS-PC were determined by polarized fluorescence anisotropy based on the method by Thorsteinsson et al.[21] with modification in a Varian Cary Eclipse fluorescence spectrophotometer using fluorescein as probe. Fluorescein was dissolved in TBS, pH 7.4, at final concentration of 0.1 µM. Solid CHAPS (control) or 14:0 NPS-PC was dissolved in TBS-fluorescein solution at concentrations indicated in figure and subjected to serial dilution in the same buffer. All fleshly prepared solutions were measured for fluorescence emission at 520 nm (excited at 490 nm) and compared the emission optics for the horizontal orientation to the vertical orientation. The anisotropy ratio of fluorescence intensities was plotted against the concentration incrementation of CHAPS or 14:0 NPS-PC. The anisotropy ratio was calculated as the followings. Anisotropyratior=IVV-G×IVH÷IVV+2×G×IVH where IVV indicates the intensity with vertically polarized excitation and vertical polarization on the detected emission. IVH indicates the intensity when using a vertical polarizer on the excitation and horizontal polarizer on the emission. G is a grating factor used as a correction for the instrument’s differential transmission of the two orthogonal vector orientations.

Compound: CCN(CC)CCN(Cc1ccc(-c2ccc(C(F)(F)F)cc2)cc1)C(=O)Cn1c(SCc2ccc(F)cc2)nc(=O)c2c1CCC2 [darapladib]
detection in TBS buffer (solubility) ([1]; 0.2 µM in TBS pH 7.4, absence of detergents): not detectable | solubilization by detergents ([1]; 0.2 µM in TBS pH 7.4 with 10 mM CHAPS or 0.6 mM Tween-20): solubilized | reduction of Lp-PLA2 activity (Lp-PLA2 [2]): approximately 66%

Compound: Triton X-100
CMC [3]: 0.3 mM

Hill slope of the substrate titration curve (Lp-PLA2 [4]; absence of 10 mM CHAPS): approximately 2.0 | Hill slope of the substrate titration curve (Lp-PLA2 [4]; presence of 10 mM CHAPS): approximately 1.0 | Km (Lp-PLA2 [4]; with 10 mM CHAPS): 238 ± 11.7 µM | Vmax (Lp-PLA2 [4]; with 10 mM CHAPS): 187 ± 2 nmol/min/mL | Km (Lp-PLA2 [4]; without CHAPS): 187 ± 18.5 µM | Vmax (Lp-PLA2 [4]; without CHAPS): 191 ± 5 nmol/min/mL | CMC [5]: 0.5 to 1 mM | form in bulk phase ([1]; 10 µM in TBS pH 7.4, absence of detergents): existed only as monomer | monomeric fraction detected in bulk ([1]; 10 µM in TBS pH 7.4 in presence of detergents): Less than 5% | fraction in mixed micelles ([1]; 10 µM in TBS pH 7.4 with 10 mM CHAPS or 60 µM Tween-20): > 95%
Compound: CCCCCCCCCCCCCC(=O)OC[C@H](COP(=O)([O-])OCC[N+](C)(C)C)OC(=O)CCC(=O)Oc1ccc([N+](=O)[O-])cc1 [14:0 NPS-PC, 1-myristoyl-2-(4-nitrophenylsuccinyl)-sn-glycero-3-phosphocholine]

Compound: C[C@H](CCC(=O)NCCC[N+](C)(C)CCCS(=O)(=O)[O-])[C@H]1CC[C@H]2[C@@H]3[C@H](O)C[C@@H]4C[C@H](O)CC[C@]4(C)[C@H]3C[C@H](O)[C@]12C [CHAPS, 3-[(3-Cholamidopropyl)dimethylammonio]-1-propanesulfonate]
CMC [5]: 5 to 10 mM | CMC [3]: 6 to 10 mM

Compound: C[C@@H]1CC[C@@]2(OC1)O[C@H]1[C@@H](O)[C@H]3[C@@H]4CC[C@H]5C[C@@H](O[C@@H]6O[C@H](CO)[C@H](O[C@@H]7O[C@H](CO)[C@@H](O)[C@H](O[C@@H]8OC[C@@H](O)[C@H](O)[C@H]8O)[C@H]7O[C@@H]7O[C@H](CO)[C@H](O)[C@H](O[C@@H]8O[C@H](CO)[C@@H](O)[C@H](O)[C@H]8O)[C@H]7O)[C@H](O)[C@H]6O)[C@H](O)C[C@]5(C)[C@H]4CC[C@]3(C)[C@H]1[C@@H]2C [Digitonin]
CMC [3]: 0.09 mM

Compound: Tween-20
mechanism of inhibition of Lp-PLA2 (Lp-PLA2 [4]; Lineweaver–Burk plots at different Tween-20 concentrations): competitive | CMC [3]: 0.06 mM
